Experimental data reported in patent US6686382B2, “Sulfonamides and derivatives thereof that modulate the activity of endothelin” (Encysive Pharmaceuticals Inc., priority 1999, dated 2004).

How the values were obtained:
[1] = target: T1, human ETA receptors (Homo sapiens, UniProt P25101); experiment: Endothelin binding inhibition, Binding Test #1: inhibition of binding to ETA receptors (TE 671 cell membranes); conditions: relative to N-(4-chloro-3-methyl-5-isoxazolyl)-2-{[3,4-(methylenedioxy)-6-methylphenyl)acetyl]-thiophene-3-sulfonamide (= 1.0)
T1 construct: endogenous in cells; host or cells: TE 671 cells (ATCC HTB 139), membrane preparation
T1 sequence (P25101 21-427): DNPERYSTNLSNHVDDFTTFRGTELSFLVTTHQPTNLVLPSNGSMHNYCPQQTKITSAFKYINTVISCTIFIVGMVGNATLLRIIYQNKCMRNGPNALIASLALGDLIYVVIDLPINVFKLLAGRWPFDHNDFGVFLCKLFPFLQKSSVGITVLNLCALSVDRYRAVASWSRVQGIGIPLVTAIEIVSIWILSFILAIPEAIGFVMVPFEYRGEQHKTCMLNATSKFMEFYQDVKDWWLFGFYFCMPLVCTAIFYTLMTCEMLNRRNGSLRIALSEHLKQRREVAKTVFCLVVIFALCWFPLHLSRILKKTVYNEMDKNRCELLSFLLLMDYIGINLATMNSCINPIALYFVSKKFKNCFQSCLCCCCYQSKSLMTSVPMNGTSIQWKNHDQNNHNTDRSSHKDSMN
Description: (§1) Compounds that are potential endothelin antagonists are identified by testing their ability to compete with ^125I-labeled ET-1 for binding to human ETA receptors or ETB receptors present on isolated cell membranes. The effectiveness of the test compound as an antagonist or agonist of the biological tissue response of endothelin can also be assessed by measuring the effect on endothelin induced contraction of isolated rat thoracic aortic rings. The ability of the compounds to act as antagonists or agonists for ETB receptors can be assess by testing the ability of the compounds are to inhibit endothelin-1 induced prostacyclin release from cultured bovine aortic endothelial cells.
(§2) A. Endothelin Binding Inhibition—Binding Test #1: Inhibition of Binding to ETA Receptors
(§3) TE 671 cells (ATCC Accession No. HTB 139) express ETA receptors. These cells were grown to confluence in T-175 flasks. Cells from multiple flasks were collected by scraping, pooled and centrifugedfor 10 min at 190×g. The cells were resuspended in phosphate buffered saline (PBS) containing 10 mM EDTA using a Tenbroeck homogenizer. The suspension was centrifuged at 4° C. at 57,800×g for 15 min, the pellet was resuspended in 5 ml of buffer A (5 mM HEPES buffer, pH 7.4 containing aprotinin (100 KIU/ml)) and then frozen and thawed once. 5 ml of Buffer B (5 mM HEPES Buffer, pH 7.4 containing 10 mM MnCl2 and 0.001% deoxyribonuclease Type 1) was added, the suspension mixed by inversion and then incubated at 37° C. for 30 minutes. The mixture was centrifuged at 57,800×g as described above, the pellet washed twice with buffer A and then resuspended in buffer C (30 mM HEPES buffer, pH 7.4 containing aprotinin (100 KIU/ml) to give a final protein concentration of 2 mg/ml and stored at −70° C. until use.
(§4) The membrane suspension was diluted with binding buffer (30 mM HEPES buffer, pH 7.4 containing 150 mM NaCl, 5 mM MgCl2, 0.5% Bacitracin) to a concentration of 8 μg/50 μl. ^125I-endothelin-1 (3,000 cpm, […]) was added to 50 μL of either: (A) endothelin-1 (for non specific binding) to give a final concentration 80 nM); (B) binding buffer (for total binding); or (C) a test compound (final concentration 1 nM to 100 μM). The membrane suspension (50 μL), containing up to 8 μg of membrane protein, was added to each of (A), (B), or (C). Mixtures were shaken, and incubated at 4° C. for 16-18 hours, and then centrifuged at 4° C. for 25 min at 2,500×g. Alternatively, the incubation was conducted at 24° C. […] This, must be kept in mind when comparing IC50 concentrations among compounds provided herein.
(§5) The supernatant, containing unbound radioactivity, was decanted and the pellet counted on a Genesys multiwell gamma counter. The degree of inhibition of binding (D) was calculated according to the following equation: [formula]
Each test was generally performed in triplicate.

[2] = test system: ETA receptors and ETB receptors; experiment: Endothelin binding inhibition, ETA (TE 671) and ETB (transfected COS7) receptors: selectivity; design: species or system human; conditions: antagonism of ETA receptors over ETB receptors
Description: as §1, §2, §3, §4, §5
B. Endothelin Binding Inhibition—Binding Test #2: Inhibition of Binding to ETB Receptors
COS7 cells were transfected with DNA encoding the ETB receptor, The resulting cells, which express the human ETB receptor, were grown to confluence in T-150 flasks. Membrane was prepared as described above. The binding assay was performed as described above using the membrane preparation diluted with binding buffer to a concentration of 1 μg/50 μl.
Briefly, the COS7 cells, described above, that had been transfected with DNA encoding the ETB receptor and express the human ETB receptor on their surfaces were grown to confluence in T-175 flasks. […]

Row | Compound | ETA ACTIVITY (ETA antagonist activity relative to reference compound) [1] | Selectivity (IC50 for ETB/IC50 for ETA) [2]
1 | CC(=O)c1cc(C)cc(C)c1NC(=O)c1sccc1S(=O)(=O)Nc1onc(C)c1C [Compound 7, N-(2-acetyl-4,6-dimethylphenyl)-3-{[(3,4 dimethyl-5-isoxazolyl)amino]sulfonyl}-2-thiophenecarboxamide] | 18.1 | 441,000
2 | Cc1cc2c(cc1CC(=O)c1sccc1S(=O)(=O)Nc1onc(C)c1Cl)OCO2 [N-(4-chloro-3-methyl-5-isoxazolyl)-2-{[3,4-(methylenedioxy)-6-methylphenyl)acetyl]-thiophene-3-sulfonamide, reference compound] | 1.0 | 20,950
3 | Cc1cc(C)c(NC(=O)c2sccc2S(=O)(=O)Nc2onc(C)c2Cl)c(Cl)c1 [Compound 34, N-(2-chloro-4,6-dimethylphenyl)-3-{[(4-chloro-3-methyl-5-isoxazolyl)amino]sulfonyl}2-thiophenecarboxamide] | 20.7 | 166,000
4 | Cc1cc(C)c(NC(=O)c2sccc2S(=O)(=O)Nc2onc(C)c2Cl)c(S(C)(=O)=O)c1 [Compound 42, 3-{[(4-chloro-3-methyl-5-isoxazolyl)amino]sulfonyl)-N-[2,4-dimethyl-6-(methylsulfonyl)phenyl]-2-thiophenecarboxamide] | 64.1 | 456,000
